Data set [1] deals with T1, CXCR4 (Homo sapiens, UniProt P61073).
T1 construct: endogenous in cells; host or cells: MT-4 cells
Kind of data set: CXCR4-binding inhibition activity (125I-SDF-1α binding to MT-4 cells). The settings on record: 0.1 μM test material, ligand 125I-SDF-1α, 2 hours under ice cold condition. Here is the method: CXCR4-Binding Inhibition Activity
MT-4 cells (5×10^6/0.2 ml/well) were cultured on a 24-well microtiter plate. After the cells were incubated for 24 hours at 37° C. in a carbon dioxide gas incubator, a culture mediumwas replaced with a buffer solution (RPMI-1640 containing 0.1% BSA). Together with a ligand ^125I-SDF-1α (specific activity: 2,2000 Ci/mmol; DAIICHI PURE CHEMICALS CO. ,LTD. (Tokyo)), various concentrations of test materials were subjected to a binding reaction for 2 hours under ice cold condition.

In data set [2] the test system is ICR mice. Kind of data set: Acute toxicity in ICR mice. The data set is classed as in vivo. The settings on record: 50 mg/kg intraperitoneally twice a day for 4 days; dead mice after 5 days; male ICR mice, three animals per group. Here is the method: The CXCR4-antagonist or the salt thereof of the present invention is intraperitoneally injected in to an ICR mouse ([…]) twice a day for 4 consecutive days, and no lethal case was found after 5 days. Therefore, the conclusion can be drawn that there is no acute toxicity.
7-week old ICR mice (male) (obtained from Charls River Japan Inc) were divided into three-animals for each groups. After domestication-breeding for 1 week, the compound of the coresponding Synthesis Example was dissolved in a physiological salt solution or distilled water and the solution was then intraperitoneally dosed twice a day for 4 days (50 mg/kg in dosage).

The subject of data set [3] is type-II collagen-induced arthritis mouse. Kind of data set: Drug efficacy test on type-II collagen-induced arthritis (CIA) mouse. The data set is classed as in vivo. How it is done:
Drug Efficacy Test of the Compound No. 86 on Type-II Collagen-Induced Arthritis Mouse
Using the type-II collagen-induced mouse arthritis (CIA) model, which was a model of articular rheumatism (RA), the compound No. 86 was tested for drug efficacy.
24 of 6-week-oldmale DBA/l mice (obtained from Charles River Japan, Inc.) were used as test animal and were divided in groups of 12 animals, that is, a test group of and a control group, such that the average weights of the respective groups were almost equal to each other.
An initial-sensitizing antigen solution used was a liquid of adjusted emulsion prepared by dissolving chicken type-II collagen (obtained from Collagen Gijyutu Kensyuukai) in 0.01N acetic acid (4mg/mL) andthenmixingwith an equal amount of Freund's complete adjuvant (manufactured by Difco BRL), and an additional-sensitizing antigen solution used was a liquid of emulsion prepared by dissolving chicken type-II collagen in 0.01N acetic acid (8 mg/mL), and then mixing with an equal amount of Freund's complete adjuvant.
An initial sensitization was performed by endodermic injection of 50 μl of the initial-sensitizing antigen solution (containing 100 μg of chicken type-II collagen) into the tail of the mouse. The additional sensitization was performed after 21 days from the initial sensitization by endodermic injection of 50 μl of the additional-sensitizing antigen solution (containing 200 μg of chicken type-II collagen) into the tail of the mouse.
The compound No. 86, which was provided as a test material, was provided as one at a concentration of 5 mg/mL prepared by dissolving ditartrate thereof in a physiological saline solution. The test material was administered such that the test material was interperitoneally administered once a day for consecutive 17 days from 2 days before the additional sensitization (an amount of administered liquid was 10 mL/kg). In addition, for the control group, the test material was administered by dissolving ditartrate in a physiological saline solution so as to make the concentration of tartaric acid of 1.7 mg/mL because a dosage solvent is ditartrate for the test material compound No. 86.
Amacroscopic observation on extremities after the additional sensitization was performed once a day. A scoring of the macroscopic observation was according to the following criteria and judged on each of extremities with respect to edema of foot. The total of the scores of extremities was provided as an index of the onset of symptoms and pharmacometrics with respect to arthritis. In addition, the total of the numbers of fingers of each extremity on which edema was observed was also used as an index of pharmacometrics.
In addition, the scores in FIG. 6 were defined as follows: […]

This note sets out measurements from patent publication US20040157818A1, “Cxcr4-antagonistic drugs composed of nitrogen-containing compound” (priority 2001, published 2004).

As usually defined, the inhibition is how much of the control response was suppressed.

T1 sequence (P61073 whole entry): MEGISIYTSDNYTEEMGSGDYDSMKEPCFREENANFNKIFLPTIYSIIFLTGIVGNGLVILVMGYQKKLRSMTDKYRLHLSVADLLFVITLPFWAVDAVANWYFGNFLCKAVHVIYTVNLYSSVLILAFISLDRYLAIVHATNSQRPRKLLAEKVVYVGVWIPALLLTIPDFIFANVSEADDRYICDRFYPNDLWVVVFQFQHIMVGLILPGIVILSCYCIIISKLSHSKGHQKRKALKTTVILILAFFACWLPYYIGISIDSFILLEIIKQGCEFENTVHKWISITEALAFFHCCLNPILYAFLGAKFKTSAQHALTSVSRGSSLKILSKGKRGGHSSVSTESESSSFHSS

As to `C[C@H](NC(=O)[C@H](CCCNC1CCCc2cccnc21)NC(=O)c1ccc(CNCc2nccn2C)cc1)c1cccc2ccccc12` (stereo partly drawn) [Compound No. 107], the “inhibition rate (binding-inhibition % at 0.1 μM)” value in data set [1] worked out at 96.5%. Moreover, the “Number of dead mice” value in data set [2] was 0/3.

For the compound `C[C@H](NC(=O)[C@H](CCCNC1CCCc2cccnc21)NC(=O)c1ccc(CNCc2ncc[nH]2)cc1)c1cccc2ccccc12` (stereo partly drawn) [Compound No. 106], the “inhibition rate (binding-inhibition % at 0.1 μM)” value in data set [1] turned out to be 100.0%. Besides, in data set [2], the “Number of dead mice” value is 0/3.

For the compound `C[C@H](NC(=O)[C@H](CCCNC(=N)N)NC(=O)c1ccc(CNCc2ncc[nH]2)c2ccccc12)c1cccc2ccccc12` [Compound No. 49, N^α-(4-(imidazol-2-ylmethyl)aminomethylnaphthoyl)-L-arginine (1′S)-(1′-(1-naphthyl)ethyl)amide], the “inhibition rate (binding-inhibition % at 0.1 μM)” value in data set [1] is recorded as 97.8%. In addition, the “Number of dead mice” value in data set [2] was 0/3.

Turning to `Cn1ccnc1CNCc1ccc(C(=O)N[C@@H](CCCNC2CCCc3cccnc32)C(=O)NCc2cccc3ccccc23)cc1` (stereo partly drawn) [Compound No. 96, (2S)-2-((1-methylimidazol-2-ylmethyl)aminomethyl) benzoylamino-5-(5,6,7,8-tetrahydroquinolyl-8-yl)amino valerate 1-naphthalene methyleneamide], the “inhibition rate (binding-inhibition % at 0.1 μM)” value in data set [1] is given as 96.8%. Also, the “Number of dead mice” value in data set [2] is on record as 0/3.

For `O=C(N[C@@H](CCCNC1CCCc2cccnc21)C(=O)NCc1cccc2ccccc12)c1ccc(CNCc2ncc[nH]2)cc1` (stereo partly drawn) [Compound No. 39, (2S)-2-(4-((N-imidazol-2-ylmethyl)aminomethyl)benzoylamino)-5-(5,6,7,8-tetrahydroquinolin-8-ylamino)valerate 1-naphthalenemethylamide], the “Number of dead mice” value in data set [2] was 0/3.

`C[C@H](NC(=O)[C@H](CCCN=C(N)N)NC(=O)c1ccc(CNCc2ccccn2)cc1)c1cccc2ccccc12` [Compound No. 86, N^α-(4-(N-2-picolylaminomethyl)benzoyl)-L-arginine(1′S)-1′-(1-naphthyl)ethylamide]: the “inhibition rate (binding-inhibition % at 0.1 μM)” value in data set [1] is reported as 91.4%. The “Number of dead mice” value in data set [2] is 0/3. Further, the “lesion score of extremities (arthritis score)” value in data set [3] (5 mg/mL, 10 mL/kg intraperitoneally once a day for 17 days from 2 days before additional sensitization, observed 12 days after additional sensitization, vs control group) is “tended to inhibit a chronological increase”. The “change in animal body weights” value in data set [3] (5 mg/mL, 10 mL/kg intraperitoneally once a day for 17 days, CIA mice) was “no influence was found”. Moreover, in data set [3] (5 mg/mL, 10 mL/kg intraperitoneally once a day for 17 days, observed 12 days after additional sensitization, vs control group), the “number of edematous fingers (chronological increase)” value was “tended to inhibit a chronological increase”. In addition, in data set [3] (after 12 days from the additional sensitization, vs control group), the “increase in number of edematous fingers” value is recorded as “significantly inhibited”.

For the compound `O=C(N[C@@H](CCCNC1CCCc2cccnc21)C(=O)NCCc1c[nH]c2ccccc12)c1ccc(CNCc2ccccn2)c2ccccc12` (stereo partly drawn) [Compound No. 92, (2S)-2-(4-(N-2-picolylaminomethyl)naphthoyl)amino-5-(5,6,7,8-tetrahydroquinolin-8-yl)amino valerate 2-(3-indolyl)ethylamide], in data set [2], the “Number of dead mice” value was 0/3.

For `O=C(N[C@@H](CCCNC1CCCc2cccnc21)C(=O)NCc1cccc2ccccc12)c1ccc(CNCc2ncc[nH]2)c2ccccc12` (stereo partly drawn) [Compound No. 41, (2S)-2-(4-((N-imidazol-2-ylmethyl)aminomethyl)naphthoylamino)-5-(5,6,7,8-tetrahydroquinolin-8-ylamino)valerate 1-naphthalenemethylamide], in data set [1], the “inhibition rate (binding-inhibition % at 0.1 μM)” value was 97.9%. In data set [2], the “Number of dead mice” value is 0/3.

Consider `C[C@H](NC(=O)[C@H](CCCNC(=N)N)NC(=O)c1ccc(CNCc2ccccn2)c2ccccc12)c1cccc2ccccc12` [Compound No. 99, N^α-(4-(N-2-picolylaminomethyl)naphthoyl)-L-arginine(1′S)-1′-(1-naphthyl)ethylamide], for which the “inhibition rate (binding-inhibition % at 0.1 μM)” value in data set [1] is 76.4%. For the same compound, the “Number of dead mice” value in data set [2] is listed as 0/3.

`O=C(N[C@@H](CCCNC1CCCc2cccnc21)C(=O)NCc1cccc2ccccc12)c1ccc(CNCc2ccccn2)cc1` (stereo partly drawn) [Compound No. 65, (2S)-2-(4-(N-2-picolylaminomethyl)benzoylamino)-5-((5,6,7,8-tetrahydroquinolin-8-yl)amino)valerate 1-naphthalenemethylamide]: the “inhibition rate (binding-inhibition % at 0.1 μM)” value in data set [1] is 75.1%. In addition, the “Number of dead mice” value in data set [2] is 0/3.

As for `C[C@H](NC(=O)[C@H](CCCNC(=N)N)NC(=O)c1ccc(CNCc2nccn2C)c2ccccc12)c1cccc2ccccc12` [Compound No. 97, N^α-(4-((N-(1-methylimidazol-2-ylmethyl)amino)methyl)naphthalene-1-carbonyl)-L-arginine(1′S)-1′-(1-naphthyl)ethylamide], the “inhibition rate (binding-inhibition % at 0.1 μM)” value in data set [1] is given as 100.0%. Moreover, in data set [2], the “Number of dead mice” value is 0/3.

For `C[C@H](NC(=O)[C@H](CCCNC1CCCc2cccnc21)NC(=O)c1ccc(CNCc2ncc[nH]2)c2ccccc12)c1cccc2ccccc12` (stereo partly drawn) [Compound No. 57], the “inhibition rate (binding-inhibition % at 0.1 μM)” value in data set [1] is reported as 97.8%. Further, the “Number of dead mice” value in data set [2] was 0/3.

Take `O=C(N[C@@H](CCCNC1CCCc2cccnc21)C(=O)NCc1cccc2ccccc12)c1ccc(CNC2CCCc3cccnc32)c2ccccc12` (stereo partly drawn) [Compound No. 26, (2S)-2-(4-(5,6,7,8-tetrahydroquinolin-8-ylaminomethyl)naphthoyl)amino-5-(5,6,7,8-tetrahydroquinolin-8-ylamino)valerate 1-naphthalenemethylamide]: the “inhibition rate (binding-inhibition % at 0.1 μM)” value in data set [1] amounted to 78.6%.

For the compound `c1cc(CN2CCCNCCNCCCNCC2)ccc1CN1CCCNCCNCCCNCC1` [AMD3100, reference compound], in data set [1] (read-out: inhibition rate (binding-inhibition % at 0.1 μM)), the inhibition at 0.1 µM stood at 10%.

`C[C@H](NC(=O)[C@H](CCCNC1=NCCN1)NC(=O)c1ccc(CNCc2ncc[nH]2)cc1)c1cccc2ccccc12` [Compound No. 110, (S)-2-(4-((N-imidazol-2-ylmethyl)aminomethyl)benzoyl)amino-5-(4,5-dihydroimidazol-2-yl)amino valerate(1′S)-1′-(1-naphthyl)ethylamide]: the “inhibition rate (binding-inhibition % at 0.1 μM)” value in data set [1] stood at 75.7%.

Turning to `C[C@H](NC(=O)[C@H](CCCNC(=N)N)NC(=O)c1ccc(CNCc2ncc[nH]2)cc1)c1cccc2ccccc12` [Compound No. 95], in data set [1], the “inhibition rate (binding-inhibition % at 0.1 μM)” value stood at 100.0%.
